According to EPA's ToxValDB 9.5 (doi:10.2903/j.efsa.2016.4503):

Legend:
Anas platyrhynchos = conditions: acute; oral; unspecified; mortality
Apis mellifera = conditions: acute, mortality
Bibionidae = conditions: chronic/long-term; duration: 23 days; reproduction
Colinus virginianus = conditions: acute; oral; mortality
Coturnix japonica = conditions: chronic
Hypoaspis aculeifer = conditions: chronic/long-term; reproduction
Oncorhynchus mykiss = conditions: acute; duration: 96 hours; mortality
Pimephales promelas = conditions: chronic/long-term; duration: 28 days
Tagia sp. = conditions: chronic/long-term; reproduction
Aphidius rhopalosiphi = experiment: LR50; higher = less toxic; conditions: not reported; mortality

In the case of `Cc1ccc(-c2c(Cl)nc(C#N)n2S(=O)(=O)N(C)C)cc1`, the LD50 (Anas platyrhynchos) is reported as > 2000 mg/kg-day, the LD50 (Apis mellifera; dermal) is reported as 9.52 µg/piece and the LD50 (Apis mellifera; oral, unspecified) is reported as > 31.8 µg/piece. The NOEC (Bibionidae) was 0.0117 mg/L, the LD50 (Colinus virginianus) was > 2000 mg/kg-day and the NOAEL (Coturnix japonica) was 151 mg/kg-day. The NOEC (Hypoaspis aculeifer) was 18.7 mg/kg, the LC50 (Oncorhynchus mykiss) was > 0.107 mg/L and the NOEC (Pimephales promelas) was 0.09 mg/L. For the same compound, the LD50 (Rattus norvegicus; acute, oral, mortality) was > 5000 mg/kg, the NOAEL (Rattus norvegicus; chronic, duration: 2 years, organ weight) was 17 mg/kg-day and the NOAEL (Rattus norvegicus; reproduction developmental, body weight) was 89 mg/kg-day. The NOAEL (Rattus norvegicus; subchronic, duration: 90 days, oral, organ weight) was 29.5 mg/kg-day, the NOEC (Tagia sp.) was 2 mg/kg and the LR50 (Aphidius rhopalosiphi) was > 209 g/ha.
